Values after ≈ are worked out from the molar mass of the structure shown.
Tested on: A. viscosus
Assay: MIC microdilution, gram positive
Assay type: cell-based, Actinomyces viscosus
Details: Actinomyces viscosus; Table 2, Gram Positive
In short: (§1)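 Modified NCCLS broth microdilution: aerobes in full-strength BHI, anaerobes in half-strength BHI with yeast extract, hemin and menadione, each well given 10 µL of a ~1×10^8 CFU/mL inoculum. Drugs ranged 50–0.05 µg/assay, run in duplicate, incubated 24–48 h, anaerobically under 5% CO2/10% H2/N2 where needed. MIC was the lowest concentration with no visible growth.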

Going from `O=C(c1ccc(-c2ccccc2)cc1)c1ccc(O)c(C(=O)Nc2cccc(C(F)(F)F)c2)c1` [BPAmF, reference compound] to `O=C(Nc1cccc(C(F)(F)F)c1)c1cc(C(=O)c2cccc3ccccc23)ccc1O` [NA1mF], the MIC falls from > 50 µg/mL to < 0.1 µg/mL.

Work on `N#Cc1cccc(NC(=O)c2cc(C(=O)c3cccc4ccccc34)ccc2O)c1` [NA1mC] yielded an MIC of 3.2 µg/mL (≈ 8.15 µM).

Tested on: M. luteus
Assay: MIC microdilution, gram positive
Assay type: cell-based, Micrococcus luteus
Details: Micrococcus luteus; Table 2, Gram Positive
Procedure: The MIC's for the compounds were determined by a modified microdilution tube dilution method described in “Methods for Dilution Antimicrobial Susceptibility Tests for Bacteria that Grow Aerobically” (National Committee for Clinical Laboratory Standards Approved Standards, 1997, NCCLS document M7-A4). In general the modifications were made because of the unique growth requirements for the fastidious oral organisms and for those bacteria that require anaerobic conditions. Reference is also made to “Methods for Antimicrobial Susceptibility of Anaerobic Bacteria” (National Committee for Clinical Laboratory Standards Approved Standards, 1997, NCCLS document M11-A4). Briefly, the methods were as follows. Cultures were grown for 18-24hrs (aerobic bacteria) or 48-72 hrs (anaerobic bacteria) in the appropriate medium. For aerobic bacteria full strength brain heart infusion medium (BHI, Difco) was used. For anaerobic bacteria, half strength BHI (18.5 g/L) was supplemented by adding yeast extract (10 g/L), hemin (0.29 mL of a stock solution containing 0.1 g/200 mL dH2O) and menadione (15 mL of a stock solution containing 0.15 mL in 30 mL 95% EtOH) was used. Initial cultures were diluted to approximately 1×10^8 CFU/mL for use as an inoculum. Each assay received 10 μL of the inoculum. The drugs were prepared from a stock solution contained in dimethyl sulfoxide (DMSO) and diluted into the culture medium. Final concentrations of the drugs ranged from 50 to 0.05 μg/assay. The tests were run in duplicate and were incubated appropriately with regard to oxygen requirements for 24 to 48 hrs as required. Anaerobic incubation was an atmosphere of 5% CO2, 10% H2, with the balance N2. The lowest concentration of an antimicrobial agent at which no visible growth is noted was referred to as the MIC.

Compared with `O=C(c1ccc(-c2ccccc2)cc1)c1ccc(O)c(C(=O)Nc2cccc(C(F)(F)F)c2)c1` [BPAmF, reference compound], `O=C(Nc1cccc(C(F)(F)F)c1)c1cc(C(=O)c2cccc3ccccc23)ccc1O` [NA1mF] is 3.9-fold lower in MIC: 3.1 µg/mL (≈ 6.72 µM) for the first, 0.8 µg/mL (≈ 1.84 µM) for the second.

`N#Cc1cccc(NC(=O)c2cc(C(=O)c3cccc4ccccc34)ccc2O)c1` [NA1mC] was tested, and the MIC was 3.1 µg/mL (≈ 7.9 µM).

Tested on: Fuso. 25586
Assay: MIC microdilution, gram negative
Assay type: cell-based, Fusobacterium nucleatum
Details: Fusobacterium nucleatum; Table 3, Gram Negative
Procedure: (§2) The MIC's for the compounds were determined by a modified microdilution tube dilution method described in “Methods for Dilution Antimicrobial Susceptibility Tests for Bacteria that Grow Aerobically” (National Committee for Clinical Laboratory Standards Approved Standards, 1997, NCCLS document M7-A4). In general the modifications were made because of the unique growth requirements for the fastidious oral organisms and for those bacteria that require anaerobic conditions. Reference is also made to “Methods for Antimicrobial Susceptibility of Anaerobic Bacteria” (National Committee for Clinical Laboratory Standards Approved Standards, 1997, NCCLS document M11-A4). Briefly, the methods were as follows. Cultures were grown for 18-24hrs (aerobic bacteria) or 48-72 hrs (anaerobic bacteria) in the appropriate medium. For aerobic bacteria full strength brain heart infusion medium (BHI, Difco) was used. For anaerobic bacteria, half strength BHI (18.5 g/L) was supplemented by adding yeast extract (10 g/L), hemin (0.29 mL of a stock solution containing 0.1 g/200 mL dH2O) and menadione (15 mL of a stock solution containing 0.15 mL in 30 mL 95% EtOH) was used. Initial cultures were diluted to approximately 1×10^8 CFU/mL for use as an inoculum. Each assay received 10 μL of the inoculum. The drugs were prepared from a stock solution contained in dimethyl sulfoxide (DMSO) and diluted into the culture medium. Final concentrations of the drugs ranged from 50 to 0.05 μg/assay. The tests were run in duplicate and were incubated appropriately with regard to oxygen requirements for 24 to 48 hrs as required. Anaerobic incubation was an atmosphere of 5% CO2, 10% H2, with the balance N2. The lowest concentration of an antimicrobial agent at which no visible growth is noted was referred to as the MIC. […] The method used was the same as described in Example 1.

Going from `O=C(c1ccc(-c2ccccc2)cc1)c1ccc(O)c(C(=O)Nc2cccc(C(F)(F)F)c2)c1` [BPAmF, reference compound] to `O=C(Nc1cccc(C(F)(F)F)c1)c1cc(C(=O)c2cccc3ccccc23)ccc1O` [NA1mF], the MIC falls from > 50 µg/mL to 3.1 µg/mL (≈ 7.12 µM).

In the case of `N#Cc1cccc(NC(=O)c2cc(C(=O)c3cccc4ccccc34)ccc2O)c1` [NA1mC], the MIC is reported as 2.5 µg/mL (≈ 6.37 µM).

Same assay, conditions: Table 3 printed a second time, Gram Negative

In the case of `O=C(c1ccc(-c2ccccc2)cc1)c1ccc(O)c(C(=O)Nc2cccc(C(F)(F)F)c2)c1` [BPAmF, reference compound], the “MIC Fuso. 25586” value is reported as “NE (NE indicates that the drug was not effective at a concentration >50 micrograms/ml)”.

Compared with `N#Cc1cccc(NC(=O)c2cc(C(=O)c3cccc4ccccc34)ccc2O)c1` [NA1mC], `O=C(Nc1cccc(C(F)(F)F)c1)c1cc(C(=O)c2cccc3ccccc23)ccc1O` [NA1mF] is higher in “MIC Fuso. 25586” value: 2.5 micrograms/ml for the first, 3.1 micrograms/ml for the second.

Tested on: S.salivarius
Assay: MIC microdilution, gram positive
Assay type: cell-based, Streptococcus salivarius
Details: Streptococcus salivarius; Table 1, Gram Positive
In short: as §1

Compared with `O=C(c1ccc(-c2ccccc2)cc1)c1ccc(O)c(C(=O)Nc2cccc(C(F)(F)F)c2)c1` [BPAmF, reference compound], `O=C(Nc1cccc(C(F)(F)F)c1)c1cc(C(=O)c2cccc3ccccc23)ccc1O` [NA1mF] is lower in MIC: > 50 µg/mL for the first, 3.1 µg/mL (≈ 7.12 µM) for the second.

`N#Cc1cccc(NC(=O)c2cc(C(=O)c3cccc4ccccc34)ccc2O)c1` [NA1mC] was tested, and the MIC was 50 µg/mL (≈ 127 µM).

Tested on: B. fragilis
Assay: MIC microdilution, gram negative
Assay type: cell-based, Bacteroides fraglis
Details: Bacteroides fragilis; Table 3, Gram Negative
Procedure: as §2

First: O=C(c1ccc(-c2ccccc2)cc1)c1ccc(O)c(C(=O)Nc2cccc(C(F)(F)F)c2)c1 [BPAmF, reference compound]
Second: O=C(Nc1cccc(C(F)(F)F)c1)c1cc(C(=O)c2cccc3ccccc23)ccc1O [NA1mF]
The MIC of the first is 16-fold higher: 50 µg/mL (≈ 108 µM) for the first, 3.1 µg/mL (≈ 7.12 µM) for the second.

With `N#Cc1cccc(NC(=O)c2cc(C(=O)c3cccc4ccccc34)ccc2O)c1` [NA1mC] the MIC was > 50 µg/mL.

Same assay, conditions: Table 3 printed a second time, Gram Negative

Compared with `O=C(c1ccc(-c2ccccc2)cc1)c1ccc(O)c(C(=O)Nc2cccc(C(F)(F)F)c2)c1` [BPAmF, reference compound], `O=C(Nc1cccc(C(F)(F)F)c1)c1cc(C(=O)c2cccc3ccccc23)ccc1O` [NA1mF] is lower in “MIC B. fragilis” value: 50 micrograms/ml for the first, 3.1 micrograms/ml for the second.

With `N#Cc1cccc(NC(=O)c2cc(C(=O)c3cccc4ccccc34)ccc2O)c1` [NA1mC] the “MIC B. fragilis” value was “NE (NE indicates that the drug was not effective at a concentration >50 micrograms/ml)”.

Tested on: P. ging 381
Assay: MIC microdilution, gram negative
Assay type: cell-based, Porphyromonas gingivalis
Details: Porphyromonas gingivalis, 381; Table 3, Gram Negative
In short: (§3)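 Modified NCCLS broth microdilution; anaerobes grown 48-72 hrs in half-strength BHI with yeast extract, hemin and menadione, aerobes in full-strength BHI, inoculum ~1×10^8 CFU/mL (10 μL/assay). Drugs from DMSO stock, final 50 to 0.05 μg/assay, duplicate, 24 to 48 hrs (anaerobic: 5% CO2, 10% H2, N2); MIC = lowest concentration without visible growth.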

`O=C(c1ccc(-c2ccccc2)cc1)c1ccc(O)c(C(=O)Nc2cccc(C(F)(F)F)c2)c1` [BPAmF, reference compound] and `O=C(Nc1cccc(C(F)(F)F)c1)c1cc(C(=O)c2cccc3ccccc23)ccc1O` [NA1mF] cannot be ordered by MIC: < 0.4 µg/mL for the first, < 0.1 µg/mL for the second.

In the case of `N#Cc1cccc(NC(=O)c2cc(C(=O)c3cccc4ccccc34)ccc2O)c1` [NA1mC], the MIC is reported as 0.4 µg/mL (≈ 1.02 µM).

Same assay, conditions: Table 3 printed a second time, Gram Negative

For `O=C(c1ccc(-c2ccccc2)cc1)c1ccc(O)c(C(=O)Nc2cccc(C(F)(F)F)c2)c1` [BPAmF, reference compound], the “MIC P. ging 381” value was <0.4 micrograms/ml.
With `O=C(Nc1cccc(C(F)(F)F)c1)c1cc(C(=O)c2cccc3ccccc23)ccc1O` [NA1mF] the “MIC P. ging 381” value was <0.1 micrograms/ml.

With `N#Cc1cccc(NC(=O)c2cc(C(=O)c3cccc4ccccc34)ccc2O)c1` [NA1mC] the “MIC P. ging 381” value was 0.4 micrograms/ml.

Tested on: Pg 53977
Assay: MIC microdilution, gram negative
Assay type: cell-based, Porphyromonas gingivalis
Details: Porphyromonas gingivalis, 53977; Table 3, Gram Negative
In short: as §3

`O=C(c1ccc(-c2ccccc2)cc1)c1ccc(O)c(C(=O)Nc2cccc(C(F)(F)F)c2)c1` [BPAmF, reference compound] and `O=C(Nc1cccc(C(F)(F)F)c1)c1cc(C(=O)c2cccc3ccccc23)ccc1O` [NA1mF] cannot be ordered by MIC: < 0.4 µg/mL for the first, < 0.1 µg/mL for the second.

In the case of `N#Cc1cccc(NC(=O)c2cc(C(=O)c3cccc4ccccc34)ccc2O)c1` [NA1mC], the MIC is reported as 0.8 µg/mL (≈ 2.04 µM).

Same assay, conditions: Table 3 printed a second time, Gram Negative

`O=C(c1ccc(-c2ccccc2)cc1)c1ccc(O)c(C(=O)Nc2cccc(C(F)(F)F)c2)c1` [BPAmF, reference compound] was tested, and the “MIC Pg 53977” value was <0.4 micrograms/ml.
For `O=C(Nc1cccc(C(F)(F)F)c1)c1cc(C(=O)c2cccc3ccccc23)ccc1O` [NA1mF], the “MIC Pg 53977” value was <0.1 micrograms/ml.

With `N#Cc1cccc(NC(=O)c2cc(C(=O)c3cccc4ccccc34)ccc2O)c1` [NA1mC] the “MIC Pg 53977” value was 0.8 micrograms/ml.

Tested on: S. species R
Assay: Staphylococcus MIC
Assay type: cell-based, staphylococcus species R
Details: Staphylococcus; second Table 5 (Example 5); strain 00-045-1209
Procedure: The MIC's for the compounds were determined by a modified microdilution tube dilution method described in “Methods for Dilution Antimicrobial Susceptibility Tests for Bacteria that Grow Aerobically” (National Committee for Clinical Laboratory Standards Approved Standards, 1997, NCCLS document M7-A4). In general the modifications were made because of the unique growth requirements for the fastidious oral organisms and for those bacteria that require anaerobic conditions. Reference is also made to “Methods for Antimicrobial Susceptibility of Anaerobic Bacteria” (National Committee for Clinical Laboratory Standards Approved Standards, 1997, NCCLS document M11-A4).
Briefly, the methods were as follows. Cultures were grown for 18-24hrs (aerobic bacteria) or 48-72 hrs (anaerobic bacteria) in the appropriate medium. For aerobic bacteria full strength brain heart infusion medium (BHI, Difco) was used. For anaerobic bacteria, half strength BHI (18.5 g/L) was supplemented by adding yeast extract (10 g/L), hemin (0.29 mL of a stock solution containing 0.1 g/200 mL dH2O) and menadione (15 mL of a stock solution containing 0.15 mL in 30 mL 95% EtOH) was used. Initial cultures were diluted to approximately 1×10^8 CFU/mL for use as an inoculum. Each assay received 10 μL of the inoculum. The drugs were prepared from a stock solution contained in dimethyl sulfoxide (DMSO) and diluted into the culture medium. Final concentrations of the drugs ranged from 50 to 0.05 μg/assay. The tests were run in duplicate and were incubated appropriately with regard to oxygen requirements for 24 to 48 hrs as required. Anaerobic incubation was an atmosphere of 5% CO2, 10% H2, with the balance N2. The lowest concentration of an antimicrobial agent at which no visible growth is noted was referred to as the MIC.
This embodiment describes the sensitivity of various staphylococcus strains to the compounds of the present invention. The staphylococcus species R is a strain 00-045-1209 from the Children's Hospital in Buffalo. It was isolated from the peritoneal cavity (fluid culture) of an individual. It was coagulase negative. The sensitivity of this strain was tested agaisnt several known antibiotics.

Compared with `O=C(c1ccc(-c2ccccc2)cc1)c1ccc(O)c(C(=O)Nc2cccc(C(F)(F)F)c2)c1` [BPAmF, reference compound], `O=C(Nc1cccc(C(F)(F)F)c1)c1cc(C(=O)c2cccc3ccccc23)ccc1O` [NA1mF] is lower in MIC: > 50 µg/mL for the first, 1.6 µg/mL (≈ 3.67 µM) for the second.

`N#Cc1cccc(NC(=O)c2cc(C(=O)c3cccc4ccccc34)ccc2O)c1` [NA1mC] was tested, and the MIC was 25 µg/mL (≈ 63.7 µM).

Same assay, conditions: statement in text referring to Table 5

`O=C(Nc1cccc(C(F)(F)F)c1)c1cc(C(=O)c2cccc3ccccc23)ccc1O` [NA1mF] was tested, and the “sensitivity of staphylococcus species R to the compounds” value was “highest effect”.

Tested on: S. mutans
Assay: MIC microdilution, gram positive
Assay type: cell-based, Streptococcus mutans
Details: Streptococcus mutans; Table 1, Gram Positive
In short: as §1

Compared with `O=C(c1ccc(-c2ccccc2)cc1)c1ccc(O)c(C(=O)Nc2cccc(C(F)(F)F)c2)c1` [BPAmF, reference compound], `O=C(Nc1cccc(C(F)(F)F)c1)c1cc(C(=O)c2cccc3ccccc23)ccc1O` [NA1mF] is lower in MIC: > 50 µg/mL for the first, 0.8 µg/mL (≈ 1.84 µM) for the second.

`N#Cc1cccc(NC(=O)c2cc(C(=O)c3cccc4ccccc34)ccc2O)c1` [NA1mC] showed an MIC of 3.1 µg/mL (≈ 7.9 µM).
